According to patent publication US20150216880A1, “INDUCING LACTATION IN NURSING FEMALES” (priority 2014, published 2015):

System: lactation in nursing females
Assay: Topical cream applied to the nipple of a nursing mother; reported milk production
Type: in vivo, human
Conditions: nursing parent with child, 2 ml of Lubriderm Ultra cream with two percent, by volume, stanozolol, left on about two minutes, then washed off
Procedure: In use, the cream is applied to a nipple prior to breast feeding. Generally, the cream is left on the nipple for about five to about twenty minutes and, usually, for about five to about fifteen minutes.
It is then removed by washing. Then the mother is then ready to being nursing.
A nursing parent having a child with the ability to achieve adequate lactation has applied a 2 ml quantity of a Lubriderm Ultra cream having two percent, by volume, stanozolol added thereto. The so-applied cream is left on for about two minutes. It is then washed off.

## C[C@]12Cc3c[nH]nc3C[C@@H]1CC[C@@H]1[C@@H]2CC[C@@]2(C)[C@H]1CC[C@]2(C)O [stanozolol]
  milk production (reported by the mother): increase in milk production
